Key:
[1] = Body weight of rhino mice treated with ST1898 (Formulation 2) or adapalene; assay type: in vivo, rhino (RHJ/LeJ) mice
Experimental: (§1) 30 rhino (RHJ/LeJ) mice (Jackson Laboratory), 15 male and 15 female (6-8 weeks of age) were subdivided in 6 mice/group. Two groups were treated with ST1898 (Formulation 2) (0.1% and 0.05% in the vehicle), a group with adapalene (Differin® gel), used as reference compound (0.1%), a group with the vehicle (the same of the formulation of Differin® gel: carbomer 980, propylene glycol, poloxamer, disodium edentate, methyl hydroxybenzoate, phenoxyethanol, sodium hydroxide and purified water).
A topical application on the dorsal skin (massage for 30-45 sec) was performed of 50 μl applied with a gloved finger. The treatment was done once daily for 5 consecutive days/week (excluding Saturdays and Sundays) for 3 consecutive weeks.
During the treatment, the body weight of mice was recorded to control the healthy status of mice. No significative variation in body weight was found (table 2).
Mice were sacrificed 3 days after the last treatment. The vehicle used for ST1898 (Formulation 2) was the same of Differin gel (carbomer 980, propylene glycol, poloxamer, disodium edentate, methyl hydroxybenzoate, phenoxyethanol, sodium hydroxide and purified water).

[2] = system: epidermal utriculi (comedones) of rhino mice; assay: Comedolytic action of ST1898 (Formulation 2) on epidermal pseudocomedones in rhino mice; assay type: in vivo, rhino (RHJ/LeJ) mice
Experimental: Formulations: ST1898 0.1 and 0.05% in the vehicle.
Vehicle: carbomer 980, propylene glycol, poloxamer, disodium edentate, methyl hydroxybenzoate, phenoxyethanol, sodium hydroxide and purified water).
Adapalene (Differin Gel®) was used as reference compound (0.1%).
as §1
A group was not treated (control). The drugs (50 μl) were applied with a sterile gloved finger topically on the dorsal skin (massage for 30-45 sec), once daily for 5 consecutive days/week (excluding Saturdays and Sundays) for 3 consecutive […]. Three days after the last application, mice were sacrificed by cervical dislocation. Two skin punch biopsies (6 mm) were taken immediately after death from all sacrificed animals. The biopsies were formalin-fixed (10% buffered formalin solution) and paraffin-embedded.
Quantitative histological image analysis was evaluated as the total number of epidermal utriculi (comedones) per centimeter of stratum corneum length, the comedo profile, and the epidermal thickness. From one biopsy, three 3-μm thick skin sections were obtained at 150 μm intervals and were stained with hematoxylin-eosin. The second biopsy was kept stored for records.
Assisted computer morphometric analysis of the stained skin sections was performed using a Zeiss KS300.3 system (parameters n. 1, 3 and 4). For total length of the stratum corneum measurement a micrometric equipment was used. The following microscopic parameters were measured:
1) on each open epidermal utriculum/comedo the largest diameter or diameter taken at half depth (D) and diameter of the surface orifice (d),
2) length of the three sections, taken as total length of the stratum corneum,
3) total number of epidermal utriculi/comedones in the three sections,
4) in interfollicular areas, surface (S) of the epidermis and length (L) of the corresponding basal layer.
1) number of utriculi/(comedones)/length of stratum corneum (cm);
2) Comedo profile, calculated as r=d/D,
3) epidermal thickness, calculated as S/L in […]m.
A topical application on the dorsal skin (massage for 30-45 sec) was performed of 50 μl applied with a gloved finger. The treatment was done once daily for 5 consecutive days/week (excluding Saturdays and Sundays) for 3 consecutive weeks. […]

SMILES: COc1ccc(-c2ccc3cc(C(=O)O)ccc3c2)cc1C12CC3CC(CC(C3)C1)C2 [Adapalene, reference compound]
- Initial body weight gr ± SE ([1]; 0.1% group, before treatment): 21.3 ± 1.1 gr
- Body weight loss max (%) ([1]; 0.1% topical qdx5/wx3w): 4%
- Final body weight gr ± SE ([1]; 0.1% topical qdx5/wx3w): 21.2 ± 1.3 gr
- Comedones (n/cm) ([2]; 0.1% gel (Formulation 2 / Differin gel), topical 50 μl qdx5/wx3w, mean ± SD, untreated 57.35, vehicle 57.27): 28.31 ± 2.92 n/cm
- Comedo profile (r = d/D) ([2]; 0.1% gel, topical 50 μl qdx5/wx3w, mean ± SD, untreated 0.62, vehicle 0.61): 1.24 ± 0.11
- Epidermal thickness (μm) ([2]; 0.1% gel, topical 50 μl qdx5/wx3w, mean ± SD, untreated 20.90, vehicle 20.56): 57.33 ± 9.99 μm
- Histological analysis: interfollicular epidermis (in words) ([2]; skin of treated rhino mice): hyperplasia of interfollicular epidermis

From patent US7635719B2, “Use of adamatyl methoxydiphenyl propenoic acid for the treatment of acne” (Sigma-Tau Industrie Farmaceutiche Riunite S.p.A., priority 2005, dated 2009)
